± gives the expanded uncertainty stated by the source.
Conditions: Liquid, Ebulliometric method (Recirculating still)

C1COCCN1 [tetrahydro-1,4-oxazine]
Conditions | vapor or sublimation pressure [kPa]
356.46 K | 22.57 ± 0.2
359.12 K | 24.96 ± 0.2
361.7 K | 27.47 ± 0.2
364.05 K | 30.02 ± 0.21
366.23 K | 32.49 ± 0.21
368.27 K | 34.95 ± 0.21
370.28 K | 37.52 ± 0.21
372.11 K | 40.01 ± 0.21
373.84 K | 42.47 ± 0.21
375.53 K | 45.01 ± 0.21
377.1 K | 47.47 ± 0.21
378.63 K | 49.95 ± 0.21
380.12 K | 52.51 ± 0.21
381.51 K | 54.94 ± 0.22
382.87 K | 57.53 ± 0.22
384.16 K | 59.98 ± 0.22
385.48 K | 62.51 ± 0.22
386.71 K | 65.04 ± 0.22
387.9 K | 67.54 ± 0.22
389.05 K | 69.99 ± 0.22
390.19 K | 72.56 ± 0.22
391.28 K | 75.03 ± 0.22
392.32 K | 77.49 ± 0.23
393.36 K | 80.02 ± 0.23
394.38 K | 82.52 ± 0.23
395.33 K | 85.07 ± 0.23
396.32 K | 87.48 ± 0.23
397.26 K | 90.03 ± 0.23
398.15 K | 92.46 ± 0.23
399.11 K | 95.07 ± 0.24
399.93 K | 97.49 ± 0.24
400.78 K | 100.01 ± 0.24
401.24 K | 101.32 ± 0.24
